Measured values reported in patent US20130231365A1, “Treatment of Inflammation with Certain Alpha-7 Nicotinic Acid Receptor Agonists in Combination with Acetylcholinesterase Inhibitors” (priority 2010, published 2013).

Target: T1, human alpha7 receptor (Homo sapiens, UniProt P36544)
T1 construct: expressed in transfected cells; host or cells: Xenopus laevis oocytes (cDNA injected into the germinal vesicle)
Assay: Acetylcholine-evoked currents in Xenopus oocytes with co-application of the alpha7 agonist
Assay type: cell-based
Experimental: FIG. 1 depicts a protocol for administering acetylcholine and (R)-7-chloro-N-(quinuclidin-3-yl)benzo[b]thiophene-2-carboxamide hydrochloride monohydrate to Xenopus oocytes.
FIG. 2 depicts the results of an assay showing the action of acetylcholine and (R)-7-chloro-N-(quinuclidin-3-yl)benzo[b]thiophene-2-carboxamide hydrochloride monohydrate.
In the study described below currents were measures in Xenopus oocytes. Acetylcholine at 40 micromolar was administered prior to administration of (R)-7-chloro-N-(quinuclidin-3-yl)benzo[b]thiophene-2-carboxamide is (R)-7-chloro-N-(quinuclidin-3-yl)benzo[b]thiophene-2-carboxamide hydrochloride monohydrate at 0.3 nM using the protocol depicted in FIG. 1. Currents were normalized to unity versus the average acetylcholine-evoked current measured during the stabilization period (4 time points).
The EC50 for an alpha7 receptor agonist can be measured using Xenopus oocytes as described previously (Boess et al. 2007 J Pharm Exp Therap 321:716; Methfessel et al., 1986 Pflueg Arch Eur J Physiol 407:577-588; Schnizler et at 2003 Receptors Channels 9:41-48). […] Solutions of test compounds in normal frog Ringer's solution are superfused through the recording chamber for 20 s while the voltage-clamp current is recorded. […] By testing with various concentration of the alpha7 receptor agonist the EC50 for agonism can be determined.

T1 sequence (P36544 23-502): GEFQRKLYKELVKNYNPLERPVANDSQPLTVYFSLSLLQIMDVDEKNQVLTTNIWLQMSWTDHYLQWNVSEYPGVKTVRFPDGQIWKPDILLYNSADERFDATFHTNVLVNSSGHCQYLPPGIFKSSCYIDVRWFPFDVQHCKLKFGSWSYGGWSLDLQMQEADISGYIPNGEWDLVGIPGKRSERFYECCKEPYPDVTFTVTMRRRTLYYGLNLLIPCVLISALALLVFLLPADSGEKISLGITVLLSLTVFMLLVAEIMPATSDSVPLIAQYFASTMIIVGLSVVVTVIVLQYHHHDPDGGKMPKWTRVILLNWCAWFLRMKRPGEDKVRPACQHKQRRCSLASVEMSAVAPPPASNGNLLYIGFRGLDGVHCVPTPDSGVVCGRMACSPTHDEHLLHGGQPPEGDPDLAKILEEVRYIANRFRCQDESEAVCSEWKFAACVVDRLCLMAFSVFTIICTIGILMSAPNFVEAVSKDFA

Cl.O=C(N[C@H]1CN2CCC1CC2)c1cc2cccc(Cl)c2s1 [(R)-7-chloro-N-(quinuclidin-3-yl)benzo[b]thiophene-2-carboxamide hydrochloride monohydrate]
acetylcholine-evoked current, normalized to unity versus the average current of the stabilization period (acetylcholine 40 micromolar given before compound at 0.3 nM, after 8 and 16 minutes incubation, average of 3 cells, FIG. 2): large current increase | effect when administered with acetylcholine (very low concentrations of compound, well below the expected EC50): synergistic effect
